In patent US5071636A, “Chelating compounds and their use” (Nihon Medi-Physics Co., Ltd., priority 1987, dated 1991):

How the values were obtained:
[1] = Thin layer electrophoresis (EP) of technetium-99m-labeled compounds; format: physicochemical; conditions: Table 16, Tc-99m-labeled; 50 mM phosphate buffer pH 7.4, 0.5 mA/cm, room temperature, 15 minutes
Experimental: ZI. Thin layer electrophoresis for Tc-99m-(BI-11c)
An appropriate amount of Tc-99m-(BI-11c) was spotted on an acetylated cellulose membrane and subjected to electrophoresis using 50 mM phosphate buffer (pH, 7.4) as an electrode buffer at a constant current of 0.5 mA/cm and at room temperature for 15 minutes. In the same manner as in ZH, the membrane was scanned to determine the distribution of radioactivity with a thin layer radioachromatoscanner.
In the same manner as in Example 8 ZF, ZG, ZH and ZI but using other polyaminedithiol compounds instead of Compound (11c), preparation of non-radioactive carriers and radioactive diagnostic agents was made. The optimum labeling conditions for the polyaminedithiol compounds were studied. Furthermore, the physical characteristics of the produced technetium-99m-labeled polyaminedithiol compounds were evaluated.

[2] = Biodistribution in rabbits: biological half life in the brain by gamma camera imaging; format: in vivo, Japanese white rabbits (male); conditions: for Biological half-life in brain, First phase / Biological half-life in brain, First phase (rate) / Biological half-life in brain, Second phase / Biological half-life in brain, Second phase (rate): rabbit, in vivo; for Accumulation in the cerebral parenchymal cells / biological half life in the brain, first phase / biological half life in the brain, second phase / rate of first phase of biological half life in the brain / rate of second phase of biological half life in the brain: rabbits, Example 10; for Accumulation in the cerebral parenchymal cells: imaging; for biological half life in the brain, first phase / biological half life in the brain, second phase / rate of first phase of biological half life in the brain / rate of second phase of biological half life in the brain: via the carotid artery
Experimental: Japanese white rabbits (male) were anesthetized with a pentobarbital solution (2.5 mg/kg), and Tc-99m(BI-11o) (0.2 ml, […]) was administered via the carotid artery under a gamma camera (GCA-90B, Toshiba Co., Ltd.). Then, imaging of 112 frames (30 seconds/frame) was made in minutes. A region of interest was drawn around brain on images, and the time-activitycurve of the brain was obtained.
It was thus concluded that the above examination procedure was suitable for evaluation of the accumulation in the brain and the disappearance from the brain.
In the same manner as in Example 10 using other technetium-99m-labeled polyaminedithiol compounds instead of Tc-99m-(BI-11o), their biodistribution in rabbits was examined, and their biological half-life in the brain was calculated.

[3] = system: normal cerebral parenchymal cells; conditions: in vivo; cited from earlier work

Row | SMILES | EP (Charge) [1] | Biological half-life in brain, First phase [2] [min] | Biological half-life in brain, First phase (rate) [2] [%] | Biological half-life in brain, Second phase [2] [min] | Biological half-life in brain, Second phase (rate) [2] [%] | Accumulation in the cerebral parenchymal cells [2] | biological half life in the brain, first phase [2] [minutes] | biological half life in the brain, second phase [2] [minutes] | rate of first phase of biological half life in the brain [2] [%] | rate of second phase of biological half life in the brain [2] [%] | accumulation in normal cerebral parenchymal cells [3]
1 | CCCCCNCC(NCCNCC(C)(C)S)C(C)(C)S (centres unmarked) [Compound 11d, N-(2-Mercapto-2-methylpropyl)-N' -(1-n-amylaminomethyl-2-mercapto-2-methylpropyl)ethylenediamine] | .smallcircle. | 18 | 32 | 184 | 68 |  |  |  |  |  | 
2 | CC(C)(S)CNCCNC(CN1CCCCC1)C(C)(C)S (centres unmarked) [Compound 11g, N-(2-Mercapto-2-methylpropyl)-N' -(2-mercapto-2-methyl-1-piperidino-methylpropyl)ethylenediamine] |  | 5 | 23 | 60 | 77 |  |  |  |  |  | 
3 | CC(C)(S)CNCCNC(CN1CCNCC1)C(C)(C)S (centres unmarked) [Compound 11h, N-(2-Mercapto-2-methylpropyl)-N'-(2-mercapto-2-methyl-1-piperazinomethylpropyl)ethylenediamine] |  | 1 | 44 | 40 | 56 |  |  |  |  |  | 
4 | CN1CCN(CC(NCCNCC(C)(C)S)C(C)(C)S)CC1 (centres unmarked) [Compound 11i, N-(2-Mercapto-2-methylpropyl)-N' -[2-mercapto-2-methyl-1-(4-methyl-piperazino)methylpropyl]ethylene-diamine] |  | 8 | 50 | 686 | 50 |  |  |  |  |  | 
5 | CC(C)(S)CNCCNC(CN1CCOCC1)C(C)(C)S (centres unmarked) [Compound 11k, N-(2-Mercapto-2-methylpropyl)-N' -(2-mercapto-2-methyl-1-morpholino-methylpropyl)ethylenediamine] |  | 4 | 39 | 21 | 61 |  |  |  |  |  | 
6 | CCCC(C)NCC(NCCNCC(C)(C)S)C(C)(C)S (centres unmarked) [Compound 11l, N-(2-Mercapto-2-methylpropyl)-N' -[1-(1-methylbutylamino)-methyl-2-mercapto-2-methylpropyl]ethylene-diamine] |  | 11 | 34 | 132 | 66 |  |  |  |  |  | 
7 | CCCCCCNCC(NCCNCC(C)(C)S)C(C)(C)S (centres unmarked) [Compound 11m, N-(2-Mercapto-2-methylpropyl)-N' -(1-n-hexylaminomethyl-2-mercapto-2-methylpropyl)ethylenediamine] | .smallcircle. | 3 | 24 | 58 | 76 |  |  |  |  |  | 
8 | CCCCN(CC)CC(NCCNCC(C)(C)S)C(C)(C)S (centres unmarked) [Compound 11n, N-(2-Mercapto-2-methylpropyl)-N' -[1-(N-butyl-N-ethylamino)-methyl-2-mercapto-2-methylpropyl]ethylenediamine] |  | 17 | 42 | 198 | 58 |  |  |  |  |  | 
9 | CC1CCN(CC(NCCNCC(C)(C)S)C(C)(C)S)CC1 (centres unmarked) [Compound 11p, N-(2-Mercapto-2-methylpropyl)-N'-[2-mercapto-2-methyl-1-(4-methylpiperidino)methylpropyl]ethylenediamine] | .smallcircle. | 3 | 18 | 83 | 82 |  |  |  |  |  | 
10 | CC(C)(S)CNCCNC(CN1CCCC1)C(C)(C)S (centres unmarked) [Compound 11r, N-(2-Mercapto-2-methylpropyl)-N'-(2-mercapto-2-methyl-1-pyrrolidinomethylpropyl)ethylenediamine] |  | 3 | 28 | 36 | 72 |  |  |  |  |  | 
11 | CC(C)(S)CNCCNC(CN1CCN(Cc2ccccc2)CC1)C(C)(C)S (centres unmarked) [Compound 11w, N-(2-Mercapto-2-methylpropyl)-N'-[1-(4-benzylpiperazino)methyl-2-mercapto-2-methylpropyl]ethylenediamine] | .smallcircle. | 13 | 60 | 144 | 40 |  |  |  |  |  | 
12 | CC(C)(S)CNCCNC(CN1CCC(c2ccccc2)CC1)C(C)(C)S (centres unmarked) [Compound 11x, N-(2-Mercapto-2-methylpropyl)-N'-[2-mercapto-2-methyl-1-(4-phenylpiperidino)methylpropyl]ethylenediamine] | .smallcircle. | 10 | 46 | 150 | 54 |  |  |  |  |  | 
13 | CC(C)(S)C(CNCCN1CCOCC1)NCCNC(CNCCN1CCOCC1)C(C)(C)S (centres unmarked) [Compound 14r, N,N' -Bis[2-mercapto-2-methyl-1-(2-morpholinoethylamino)methylpropyl]-ethylenediamine] | .smallcircle. |  |  |  |  |  |  |  |  |  | 
14 | CC(C)(S)C(CNCCCN1CCOCC1)NCCNC(CNCCCN1CCOCC1)C(C)(C)S (centres unmarked) [Compound 14s, N,N'-Bis[2-mercapto-2-methyl-1-(3-morpholinopropylamino)methyl-propyl]ethylenediamine] | .smallcircle. |  |  |  |  |  |  |  |  |  | 
15 | CCCCSC(C)(C)CNCCNC(CN1CCC(C)CC1)C(C)(C)S (centres unmarked) [Compound 33, N-(2-Butylthio-2-methylpropyl)-N'-[2-mercapto-2-methyl-1-(4-methylpiperidino)methylpropyl]-ethylenediamine] | .smallcircle. | 7 | 26 | 148 | 74 |  |  |  |  |  | 
16 | CC(C)NC(C)Cc1ccc([123I])cc1 (centres unmarked) [Compound I-123-IMP, N-isopropyl-2-methyl-p-iodo(I-123)-phenethylamine, reference compound] |  |  |  |  |  | observed | 71 | 98 | 39 | 61 | 
17 | O=C([O-])CN(CCN(CC(=O)[O-])CC(=O)[O-])CCN(CC(=O)[O-])CC(=O)[O-].[99Tc+4] [^99m Tc-DTPA, ^99m Tc-labeled diethylenetriaminepentaacetic acid, reference compound] |  |  |  |  |  | no accumulation was seen | 2 | 18 | 75 | 25 | not accumulating
